# Values quoted from earlier work, collected in patent publication US11534458B2, “Phosphorus-sparing nutritional composition” (Albion Laboratories, Inc., priority 2013, dated 2022).
# Like-named read-outs stand apart in the source and are kept apart here.
# Experiments:
# healthy young women = conditions: for iron absorption increased by a factor of: phytase 10 mg (190 FTU), maize porridge meal
# [1] = phytate-rich diet
molecule,measurement,setting,value
"O=C1O[C@H]([C@@H](O)CO)C(O)=C1O [ascorbic acid, reference compound]",effect on iron absorption,"healthy young women; ascorbic acid alone, iron from NaFeEDTA",little effect
same,iron absorption,[1],markedly improved
[Ca+2] [calcium],decrease of phosphorus absorption,for each 500 mg (12.5 mmol) supplemental calcium ingested,5.4 mmol
same,decrease of phosphorus absorption,for every 500 mg elemental calcium equivalent ingested,166 mg
"Recombinant A. niger phytase: recombinant Aspergillus niger phytase (microbial 3-phytase enzyme) of literature studies (protein, UniProt P34752 24-467, looked up) Phytase A: ASRNQSSCDTVDQGYQCFSETSHLWGQYAPFFSLANESVISPEVPAGCRVTFAQVLSRHGARYPTDSKGKKYSALIEEIQQNATTFDGKYAFLKTYNYSLGADDLTPFGEQELVNSGIKFYQRYESLTRNIVPFIRSSGSSRVIASGKKFIEGFQSTKLKDPRAQPGQSSPKIDVVISEASSSNNTLDPGTCTVFEDSELADTVEANFTATFVPSIRQRLENDLSGVTLTDTEVTYLMDMCSFDTISTSTVDTKLSPFCDLFTHDEWINYDYLQSLKKYYGHGAGNPLGPTQGVGYANELIARLTHSPVHDDTSSNHTLDSSPATFPLNSTLYADFSHDNGIISILFALGLYNGTKPLSTTTVENITQTDGFSSAWTVPFASRLYVEMMQCQAEQEPLVRVLVNDRVVPLHGCPVDALGRCTRDSFVRGLSFARSGGDWAECFA",iron absorption increased by a factor of,healthy young women; iron given as FeSO4,1.71
same,iron absorption increased by a factor of,healthy young women; iron given as NaFeEDTA,1.23
